From patent publication EP0246774A1, “Chemical compounds” (SMITH KLINE & FRENCH LABORATORIES LIMITED, priority 1986, dated 1987)

test system: histamine stimulated gastric acid secretion; assay: Rat lumen perfused stomach, histamine stimulated gastric acid secretion (modified Ghosh and Schild procedure); type: in vivo; conditions: intravenous administration
Source text: A. Rat : Lumen perfused stomach (histamine stimulated gastric acid secretion).
Using a modification of the procedure described by Ghosh and Schild (Br. J. Pharmacology, 13, 54, 1958), ED50 values after intravenous administration were obtained as follows: […]

| Compound | ED50 [µmol/kg] |
| --- | --- |
| COc1ccc2[nH]c([S+]([O-])Cc3nccc(N4CCOCC4)c3F)nc2c1 (stereo not shown) [Example 2, 5-methoxy-2-(4-morpholino-3-fluoro-2-pyridylmethylsulphinyl)-(lH)-benzimidazole] | 0.7 |
| COc1cc2[nH]c([S+]([O-])Cc3nccc(N4CCOCC4)c3F)nc2cc1C (stereo not shown) [Example 14, 5-methyl-6-methoxy-2-(4-morpholino-3-fluoro-2-pyridylmethylsulphinyl)-(lH)-benzimidazole] | 1.51 |

same assay, conditions: intravenous administration, dose not given

| Compound | % inhibition at µ/kg [%] |
| --- | --- |
| COc1ccc2[nH]c([S+]([O-])Cc3cc(N4CCOCC4)c(F)cn3)nc2c1 (stereo not shown) [Example 4, 5-methoxy-2-(4-morpholino-5-fluoro-2-pyridvlmethylsulphinyl)-(lH)-benzimidazole] | 51 |
| COc1ccc2[nH]c([S+]([O-])Cc3nccc(N(C)C)c3F)nc2c1 (stereo not shown) [Example 6, 5-methoxy-2-(4-dimethylamino-3-fluoro-2-pyridylmethylsulphinyl)-(1H)-benzimidazole] | 26 |
| COc1ccc2[nH]c([S+]([O-])Cc3cc(N(C)C)c(F)cn3)nc2c1 (stereo not shown) [Example 8, 5-methoxy-2-(4-dimethylamino-5-fluoro-2-pyridylmethylsulphinyl)-(1H)-benzimidazole] | 37 |
| COc1cc2nc([S+]([O-])Cc3nccc(N4CCOCC4)c3F)[nH]c2cc1OC (stereo not shown) [Example 12, 5,6-dimethoxy-2-(4-morpholino-3-fluoro-2-pyridylmethylsulphinvl)-(lH)-benzimidazole] | 33 |
| COc1cc2nc([S+]([O-])Cc3nccc(N(C)C)c3F)[nH]c2cc1OC (stereo not shown) [Example 16, 5,6-dimethoxy-2-(4-dimethylamino-3-fluoro-2-pyridylmethylsulphinyl)-(lH)-benzimidazole] | 46 |
